Data: patent US6417202B1, “Pyridylpyrrole compounds useful as interleukin-and TNF antagonists” (Pfizer Inc., priority 1996, dated 2002)

| melting point [°C] | SMILES |
| --- | --- |
| 206 to 208 | CCOC(=O)c1c(-c2ccncc2)[nH]c(-c2ccncc2)c1C [Example 11, 3-Ethoxycarbonyl-4-methyl-2,5-di(4-pyridyl)-1H-pyrrole] |
| 249 to 250 | CC(=O)c1c(-c2ccc([S+](C)[O-])cc2)[nH]c(-c2ccncc2)c1C (stereo not drawn) [Example 75, 3-Acetyl-4-methyl-2-(4-methylsulfinylphenyl)-5-(4-pyridyl)-1H-pyrrole] |
| 97 to 99 | COCc1c(-c2ccncc2)[nH]c(-c2ccncc2)c1C(=O)OC [Example 24, 3-Methoxycarbonyl-4-methoxymethyl-2,5-di(4-pyridyl)-1H-pyrrole] |
| 254 to 255 | O=C1CCCc2c(-c3ccccc3)[nH]c(-c3ccncc3)c21 [Example 54, 7-Oxo-3-phenyl-1-(4-pyridyl)-4,5,6,7-tetrahydroisoindole] |
| 218 to 221 | Cc1c(-c2ccncc2)[nH]c(-c2ccncc2)c1C(=O)OC(C)C [Example 15, 4-Methyl-3-(1-methylethoxy)carbonyl-2,5-di(4-pyridyl)-1H-pyrrole] |
| 215 to 218 | CCCOC(=O)c1c(-c2ccncc2)[nH]c(-c2ccncc2)c1C [Example 17, 4-Methyl-3-propoxycarbonyl-2,5-di(4-pyridyl)-1H-pyrrole] |
| 241 to 243 | CCc1c(-c2ccncc2)[nH]c(-c2ccncc2)c1C(C)=O [Example 28, 3-Acetyl-4-ethyl-2,5-di(4-pyridyl)-1H-pyrrole] |
| 259 to 260 | O=C1CCCc2c(-c3ccncc3)[nH]c(-c3ccccc3)c21 [Example 53, 4-Oxo-3-phenyl-1-(4-pyridyl)-4,5,6,7-tetrahydroisoindole] |
| 274 to 276 | CCOC(=O)c1c(-c2ccncc2)[nH]c(-c2ccncc2)c1-c1ccc([N+](=O)[O-])cc1 [Example 25, 3-Ethoxycarbonyl-4-(4-nitrophenyl)-2,5-di(4-pyridyl)-1H-pyrrole] |
| 111 to 113 | CCCc1c(-c2ccncc2)[nH]c(-c2ccncc2)c1C(C)=O [Example 29, 3-Acetyl-4-propyl-2,5-di(4-pyridyl)-1H-pyrrole] |
| 169 to 172 | CSc1ccc(-c2[nH]c(-c3ccncc3)c(C)c2C(C)=O)cc1 [Example 71, 3-Acetyl-4-methyl-2-(4-methylthiophenyl)-5-(4-pyridyl)-1H-pyrrole] |
| 209 to 211 | CCC(=O)c1c(-c2ccncc2)[nH]c(-c2ccncc2)c1CC [Example 3, 4-Ethyl-3-propanoyl-2,5-di(4-pyridyl)-1H-pyrrole] |
| 99 to 100 | CCOC(=O)c1c(-c2ccncc2)[nH]c(-c2ccncc2)c1-c1ccccc1 [Example 18, 3-Ethoxycarbonyl-4-phenyl-2,5-di(4-pyridyl)-1H-pyrrole] |
| 237 to 239 | CC(=O)c1c(-c2ccncc2)[nH]c(-c2ccnc3ccccc23)c1C [Example 9, 3-Acetyl-4-methyl-2-(4-pyridyl)-5-(4-quinolyl)-1H-pyrrole] |
| 278 to 280 | Cc1c(-c2ccncc2)[nH]c(-c2ccncc2)c1C=O [Example 26, 3-Formyl-4-methyl-2,5-di(4-pyridyl)-1H-pyrrole] |
| 205 to 207 | CC(=O)c1c(-c2ccncc2)[nH]c(-c2ccncc2)c1CO [Example 33, 3-Acetyl-4-hydroxymethyl-2,5-di(4-pyridyl)-1H-pyrrole] |
| 97 to 100 | CC(=O)c1c(-c2ccc(C=O)cc2)[nH]c(-c2ccncc2)c1C [Example 60, 3-Acetyl-2-(4-formylphenyl)-4-methyl-5-(4-pyridyl)-1H-pyrrole] |
| 248 to 249 | Cc1c(-c2ccncc2)[nH]c2c1C(=O)CCC2 [Example 49, 3-Methyl-4-oxo-2-(4-pyridyl)-4,5,6,7-tetrahydro-1H-indole] |
| 241 to 241.5 | Cc1c(-c2ccncc2)[nH]c2c1C(=O)CC(C)(C)C2 [Example 55, 4-Oxo-2-(4-pyridyl)-3,6,6-trimethyl-4,5,6,7-tetrahydro-1H-indole] |
| 89 to 92 | CC(=O)c1c(N2CCN(c3ccccn3)CC2)[nH]c(-c2ccncc2)c1C [Example 81, 3-Acetyl-4-methyl-5-(4-pyridyl)-2-{4-(2-pyridyl)piperazin-1-yl}-1H-pyrrole] |
| 202 to 203 | CC(=O)c1c(-c2ccc(F)cc2)[nH]c(-c2ccncc2)c1C [Example 51, 3-Acetyl-2-(4-fluorophenyl)4-methyl-5-(4-pyridyl)-1H-pyrrole] |
| 265 to 267 | Cc1c(-c2ccncc2)[nH]c(-c2ccncc2)c1C(=O)OC(C)(C)C [Example 16, 4-Methyl-3-(1,1-dimethylethoxy)carbonyl-2,5-di(4-pyridyl)-1H-pyrrole] |
| 214 to 217 | CC(=O)c1c(-c2cccc([N+](=O)[O-])c2)[nH]c(-c2ccncc2)c1C [Example 64, 3-Acetyl-4-methyl-2-(3-nitrophenyl)-5-(4-pyridyl)-1H-pyrrole] |
| 258 to 261 | Cc1c(-c2ccncc2)[nH]c(-c2ccncc2)c1CO [Example 39, 3-Hydroxymethyl-4-methyl-2,5-di(4-pyridyl)-1H-pyrrole] |

| melting point [°C] | SMILES |
| --- | --- |
| 193 to 195 | CC(=O)c1c(-c2cccc(N)c2)[nH]c(-c2ccncc2)c1C [Example 58, 3-Acetyl-2-(3-aminophenyl)-4-methyl-5-(4-pyridyl)-1H-pyrrole] |
| 224 to 224.5 | C=CCOC(=O)c1c(-c2ccncc2)[nH]c(-c2ccncc2)c1C [Example 14, 3-Allyloxycarbonyl-4-methyl-2,5-di(4-pyridyl)-1H-pyrrole] |
| 236 to 237 | CC(=O)c1cc(-c2ccncc2)[nH]c1C [Example 43, 3-Acetyl-2-methyl-5-(4-pyridyl)-1H-pyrrole] |
| 212 to 215 | CCOC(=O)c1c(-c2ccncc2)[nH]c(-c2ccncc2)c1CC [Example 10, 3-Ethoxycarbonyl-4-ethyl-2,5-di(4-pyridyl)-1H-pyrrole] |
| 204 to 205 | Cc1c(-c2ccncc2)[nH]c(-c2ccncc2)c1C(=O)OCc1ccccc1 [Example 13, 3-Benzyloxycarbonyl-4-methyl-2,5-di(4-pyridyl)-1H-pyrrole] |
| 208 to 210 | CC(=O)c1c(-c2ccncc2)[nH]c(-c2ccncc2)c1-c1ccccc1 [Example 7, 3-Acetyl-4-phenyl-2,5-di(4-pyridyl)-1H-pyrrole] |
| 278 to 280 | Cc1c(-c2ccncc2)[nH]c2c1C(=O)CCC2(C)C [Example 82 (3,7,7-trimethyl), 4-Oxo-2-(4-pyridyl)-3,7,7-trimethyl-4,5,6,7-tetrahydro-1H-indole] |
| 199 to 201 | Cc1c(-c2ccncc2)[nH]c(-c2ccncc2)c1C(=O)CC(C)C [Example 90, 4-Methyl-3-(3-methylbutanoyl)-2,5-di(4-pyridyl)-1H-pyrrole] |
| > 260 | CC(=O)c1c(-c2ccnc3ccccc23)[nH]c(-c2ccnc3ccccc23)c1C [Example 8, 3-Acetyl-4-methyl-2,5-di(4-quinolyl)-1H-pyrrole] |
| 206 to 209 | CC(=O)c1c(-c2ccc(F)c(Cl)c2)[nH]c(-c2ccncc2)c1C [Example 66, 3-Acetyl-2-(3-chloro-4-fluorophenyl)-4-methyl-5-(4-pyridyl)-1H-pyrrole] |
| 116 to 123 | CC(=O)c1c(-c2ccc3ccccc3c2)[nH]c(-c2ccncc2)c1C [Example 59, 3-Acetyl-4-methyl-2-(2-naphthyl)-5-(4-pyridyl)-1H-pyrrole] |
| 174 to 177 | COCCOC(=O)c1c(-c2ccncc2)[nH]c(-c2ccncc2)c1C [Example 20, 3-(2-Methoxyethoxy)carbonyl-4-methyl-2,5-di(4-pyridyl)-1H-pyrrole] |
| 95 to 100 | CC(=O)c1c(N2C[C@@H](C)O[C@@H](C)C2)[nH]c(-c2ccncc2)c1C [Example 80, 3-Acetyl-2-(cis-2,6-dimethylmorpholin-4-yl)-4-methyl-5-(4-pyridyl)-1H-pyrrole] |
| 256 to 257 | Cc1c(-c2ccncc2)[nH]c2c1C(=O)CC(c1ccccc1)C2 (stereo not drawn) [Example 56, 3-Methyl-4-oxo-6-phenyl-2-(4-pyridyl)-4,5,6,7-tetrahydro-1H-indole] |
| 240 to 244 | CC(=O)c1c(-c2ccsc2)[nH]c(-c2ccncc2)c1C [Example 70, 3-Acetyl-4-methyl-5-(4-pyridyl)-2-(3-thienyl)-1H-pyrrole] |
| 250 to 255 | CC(=O)c1c(-c2ccncc2)[nH]c(-c2ccncc2)c1C(F)(F)F [Example 4, 3-Acetyl-2,5-di(4-pyridyl)-4-trifluoromethyl-1H-pyrrole] |
| 187 to 188 | CC(=O)c1c([N+](=O)[O-])[nH]c(-c2ccncc2)c1C [Example 84, 3-Acetyl-4-methyl-2-nitro-5-(4-pyridyl)-1H-pyrrole] |
| 202 to 203 | CC(=O)c1c(-c2ccccc2)[nH]c(-c2ccncc2)c1C [Example 46, 3-Acetyl-4-methyl-2-phenyl-5-(4-pyridyl)-1H-pyrrole] |
| 163 to 165 | CC(=O)c1c(CO)[nH]c(-c2ccncc2)c1C [Example 89, 3-Acetyl-2-hydroxymethyl-4-methyl-5-(4-pyridyl)-1H-pyrrole] |
| 187.5 to 189.5 | CC(=O)c1c(-c2ccc(Cl)cc2)[nH]c(-c2ccncc2)c1C [Example 68, 3-Acetyl-2-(4-chlorophenyl)-4-methyl-5-(4-pyridyl)-1H-pyrrole] |
| 210 to 211 | CC(=O)c1c[nH]c(-c2ccncc2)c1C [Example 48, 3-Acetyl-4-methyl-5-(4-pyridyl)-1H-pyrrole] |
| 232 to 234 | Cc1c(-c2ccncc2)[nH]c(-c2ccncc2)c1S(C)(=O)=O [Example 27, 3-Metha nesulfonyl-4-methyl-2,5-di(4-pyridyl)-1H-pyrrole] |
| 218 to 220 | CC(=O)c1c(N2CCN(c3ccccc3)CC2)[nH]c(-c2ccncc2)c1C [Example 78, 3-Acetyl-4-methyl-2-(4-phenylpiperazin-1-yl)-5-(4-pyridyl)-1H-pyrrole] |

| SMILES | melting point [°C] |
| --- | --- |
| CCCCOC(=O)c1c(-c2ccncc2)[nH]c(-c2ccncc2)c1C [Example 19, 3-Butoxycarbonyl-4-methyl-2,5-di(4-pyridyl)-1H-pyrrole] | 182 to 186 |
